The text below walks through data of article PMC9862037, “Interactions of Mycotoxin Alternariol with Cytochrome P450 Enzymes and OATP Transporters” (Metabolites, 2022).

Series [1] deals with T1, OATP1B1 (Homo sapiens, UniProt Q9Y6L6). The series is described as follows: cell-based. Also noted: expressed in transfected cells; host or cells: A431. The note with it: A431-OATP1B1; pyranine 10 µM; pH 5.5; 15 min; read-out: IC50, OATP1B1 inhibition. Here is the method: A431 cell lines overexpressing human OATPs (1A2, 1B1, 1B3, or 2B1) and their mock transfected controls were generated earlier. A431 cells expressed no or negligible OATPs compared to the overexpressing cell lines. Cells were cultured in Dulbecco’s modified Eagle medium (DMEM, Thermo Fisher Scientific, Waltham, MA, USA) with 10% fetal bovine serum, 2 mM L-glutamine, 100 U/mL penicillin, and 100 µg/mL streptomycin at 37 °C, with 5% CO2. OATP expression was regularly monitored (based on the transport activity of transfected cells), and the cells were used up to 20 passages.
Interaction between OATPs (1A2, 1B1, 1B3, and 2B1) and AOH was measured in an indirect transport assay with pyranine or sulforhodamine 101 as fluorescent probes. A431 cell overexpressing OATPs or their mock transfected controls were seeded on 96-well plates one day prior to the measurements in 200 µL DMEM in 8 × 10^4 cells/well density. […] Fluorescence was measured in an Enspire plate reader (Perkin Elmer, Waltham, MA, USA) in Ex/Em wavelengths 460/510 nm for pyranine and 586/605 nm for sulforhodamine 101. Bottom reading was applied with two horizontal (X) and two vertical (Y) points, measurement height was 3 mm with 200 flashes. IC50 values were calculated by sigmoidal fitting (Hill1), using the Origin (version 2018, OriginLab Corporation, Northampton, MA, USA) software.

The target in series [2] is T1, OATP1B1. Format: cell-based. Also noted: expressed in transfected cells; host or cells: A431. The note with it: 2, 5 or 10 µM AOH; 15 min; pH 5.5. Here is the method: The A431 cell line overexpressing OATP1B1 or mock transfected control were trypsinized, and counted with automated cell counter (TC10, BIORAD, Hercules, CA, USA). The cells were washed with 1 mL buffer (pH 5.5; described above) and centrifuged for 5 min at 1500 g. After the supernatant was removed, 2 × 10^6 cells in 50 µL volume of the same buffer were handed out into separate Eppendorf tubes, then 50 µL of AOH solutions (diluted in buffer, pH 5.5) was added (final concentrations: 2, 5, or 10 µM). The cells were incubated for 15 min at 37 °C in shaking water bath. The reaction was stopped with 1 mL ice-cold PBS, after which the tubes were centrifuged for 5 min at 1500 g and 4 °C. The supernatant was removed, and the cells were washed with 1 mL ice-cold PBS, then the cell pellet was stored at −80 °C until analyses.
Before HPLC measurements, cell pellets were dissolved in 100 μL of 1 M NaOH solution with vigorous vortexing. After 15 min sonication, the solution was neutralized with 100 μL of 1 M HCl, then 200 μL acetonitrile was added. […] Thereafter, the supernatant was directly analyzed with HPLC-FLD (see details in Section 2.7).
To examine the OATP1B1-mediated uptake of AOH in A431 cells, our recently reported magnesium-sensitized HPLC-FLD method was applied. […] AOH was quantified using 345 nm and 455 nm excitation and emission wavelengths, respectively. […]

T1 sequence (Q9Y6L6 whole entry): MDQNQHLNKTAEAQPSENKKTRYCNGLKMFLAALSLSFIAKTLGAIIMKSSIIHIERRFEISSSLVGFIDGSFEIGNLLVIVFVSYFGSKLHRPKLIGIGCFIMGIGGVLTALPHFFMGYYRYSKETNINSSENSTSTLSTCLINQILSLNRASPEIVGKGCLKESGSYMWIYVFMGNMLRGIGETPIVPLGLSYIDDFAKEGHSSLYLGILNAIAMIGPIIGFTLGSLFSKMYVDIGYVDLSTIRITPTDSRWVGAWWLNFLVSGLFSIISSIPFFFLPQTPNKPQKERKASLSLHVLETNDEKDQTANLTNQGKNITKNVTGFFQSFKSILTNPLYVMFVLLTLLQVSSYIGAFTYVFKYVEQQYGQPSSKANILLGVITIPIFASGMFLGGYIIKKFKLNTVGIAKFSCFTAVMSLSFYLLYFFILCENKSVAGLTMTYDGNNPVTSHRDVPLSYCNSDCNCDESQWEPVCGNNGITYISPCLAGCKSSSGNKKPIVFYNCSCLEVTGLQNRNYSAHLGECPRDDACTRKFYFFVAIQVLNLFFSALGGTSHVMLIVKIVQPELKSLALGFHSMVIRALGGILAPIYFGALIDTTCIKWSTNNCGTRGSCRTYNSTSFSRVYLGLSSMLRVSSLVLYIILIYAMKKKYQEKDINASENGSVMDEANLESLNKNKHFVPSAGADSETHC

Usually IC50 stands for the concentration needed to halve the response being measured. Take `Cc1cc(O)cc2oc(=O)c3c(O)cc(O)cc3c12` [AOH, Alternariol]: the 50% inhibitory concentration (IC50) on OATP1B1 [1] was 2000 nM. In addition, the “cellular AOH levels in OATP1B1 expressing vs mock cells” value at OATP1B1 [2] was “higher cellular AOH levels”.
